Experimental data: patent US4749683A, “Inhibition of gastric acid secretion with alpha-transforming growth factor” (President and Fellows of Harvard College, priority 1986, dated 1988)
Where “and” joins values, the source holds several entries; their conditions need not be identical. Equal values may be shown once.

Test system: guinea pig gastric mucosa
Assay: Histamine-induced gastric acid secretion of isolated guinea pig gastric mucosa in Ussing chambers, pH stat method
Type: cell-based, guinea pigs
Details: for Ratio of pre- and post histamine treatment acid secretion (mean SEM): relative to 30 minute period prior to histamine
Description: Unfasted female guinea pigs (205-330 g) were killed by cervical dislocation and the stomachs were removed. The antrum was discarded and the stomach was rinsed clean with several washes of mammalian Ringer's solution at 37° C. The stomach was hemisected along the greater and lesser curvatures and the mucosa was separated from the seromuscularis with a pair of fine forceps. Mucosae from both sides were stretched and separately mounted in Lucite Ussing chambers (diameter 1.6 cm) and the assembled chambers were connected to water jacketted gas-lift incubators. The nutrient (submucosal) surface was bathed in 15 ml of a solution containing: 122 mM NaCl, 25.0 mM NaHCO3, 5.0 mM KCl, […] MgSO4, 2.0 mM CaCl2, 1.0 mM KH2 PO4, 20.0 mM glucose, and 100 ug/ml gentamycin sulphate (Garamycin). The solution was gassed with 95% O2 -5% CO2 bubbled through distilled water which maintained pH at 7.45-7.55. The luminal (mucosal) surface was bathed in 15 ml unbuffered saline (150 mM NaCl) which was gassed with 100% O2 passed through 500 mM NaOH to remove CO2. Gastric acid secretion was measured by the pH stat method. pH was held at 4.5 with a pH stat coupled to an autoburette and acid secretion was determined by the amount of NaOH necessary to maintain pH in the luminal solution. All solutions were maintained at 37° C. with a heated water circulator. Tissues were initially allowed to stabilize in the chambers a minimum of 2 hours. Saline with or without alpha TGF (60 ng/ml final concentration) was then added to the nutrient bath and the basal rate of acid secretion was monitored for 30 minutes. Twenty-one paired sets of tissue specimens from the same animal were employed, one receiving alpha-TGF, the other serving as control. All tissues were then treated with histamine (10^-4 M) and acid secretion was measured for an additional 3 hours. When calculated in terms of absolute levels of acid secretion, differences between control and TGF-treated tissues were significant (p<0.05) at 120, 150, and 180 minutes.

alpha-transforming growth factor [TGF]
Ratio of pre- and post histamine treatment acid secretion (mean SEM) (0 min., alpha TGF 60 ng/ml): 1.00 ± 0.00
Gastric acid secretion (mean ± SEM) (0 time, basal rate before histamine, alpha TGF 60 ng/ml in nutrient bath, n=21): 1.80 ± 0.21 uEq./cm^2 /hr
Gastric acid secretion (mean ± SEM) (30 min. after histamine 10^-4 M, alpha TGF 60 ng/ml): 2.09 ± 0.24 uEq./cm^2 /hr
Ratio of pre- and post histamine treatment acid secretion (mean SEM) (30 min., alpha TGF 60 ng/ml): 1.17 ± 0.04
Effect on the basal rate of acid secretion (30 minutes before histamine, alpha TGF 60 ng/ml): no effect
Ratio of pre- and post histamine treatment acid secretion (mean SEM) (60 min. (one hour), alpha TGF 60 ng/ml): 1.48 ± 0.11 and 1.49±0.11
Gastric acid secretion (mean ± SEM) (60 min. after histamine 10^-4 M, alpha TGF 60 ng/ml): 2.62 ± 0.35 uEq./cm^2 /hr
Gastric acid secretion (mean ± SEM) (90 min. after histamine 10^-4 M, alpha TGF 60 ng/ml): 2.97 ± 0.38 uEq./cm^2 /hr
Ratio of pre- and post histamine treatment acid secretion (mean SEM) (90 min., alpha TGF 60 ng/ml): 1.67 ± 0.12
Ratio of pre- and post histamine treatment acid secretion (mean SEM) (120 min. (two hours), alpha TGF 60 ng/ml): 1.68 ± 0.11
Gastric acid secretion (mean ± SEM) (120 min. after histamine 10^-4 M, alpha TGF 60 ng/ml): 2.97 ± 0.35 uEq./cm^2 /hr
Gastric acid secretion (mean ± SEM) (150 min. after histamine 10^-4 M, alpha TGF 60 ng/ml): 3.04 ± 0.37 uEq./cm^2 /hr
Ratio of pre- and post histamine treatment acid secretion (mean SEM) (150 min., alpha TGF 60 ng/ml): 1.73 ± 0.12
Ratio of pre- and post histamine treatment acid secretion (mean SEM) (180 min. (three hours), alpha TGF 60 ng/ml): 1.81 ± 0.27
Gastric acid secretion (mean ± SEM) (180 min. after histamine 10^-4 M, alpha TGF 60 ng/ml): 3.16 ± 0.68 uEq./cm^2 /hr
